Each structure is given as a SMILES string.

The target of this assay is T1, Aurora kinase A (Homo sapiens, UniProt O14965).
T1 sequence (O14965 whole entry): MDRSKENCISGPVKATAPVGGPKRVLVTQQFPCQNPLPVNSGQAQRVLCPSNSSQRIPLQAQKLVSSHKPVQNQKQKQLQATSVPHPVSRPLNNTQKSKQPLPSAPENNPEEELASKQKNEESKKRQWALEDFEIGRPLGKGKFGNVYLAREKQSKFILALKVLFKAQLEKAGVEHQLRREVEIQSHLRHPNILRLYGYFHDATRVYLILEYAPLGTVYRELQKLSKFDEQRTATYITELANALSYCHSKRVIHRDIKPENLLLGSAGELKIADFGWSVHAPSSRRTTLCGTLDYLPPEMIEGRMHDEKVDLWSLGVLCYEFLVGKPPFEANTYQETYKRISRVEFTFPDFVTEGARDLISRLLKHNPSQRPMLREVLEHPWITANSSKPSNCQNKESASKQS
Nature of the assay: Inhibition of Aurora A.
Regarding `COc1ccc(-c2nc3c(N4CCN(Cc5coc(C(C)C)n5)CC4)c(Br)cnc3[nH]2)cc1`, the IC50 was determined as 0.081 µM. Next, `COc1ccc(-c2nc3c(N4CCN(Cc5ccncc5)CC4)c(Br)cnc3[nH]2)cc1`: 0.009 µM; `Cc1cc(CN2CCN(c3c(Br)cnc4[nH]c(-c5ccc(N6CCNCC6)cc5)nc34)CC2)no1`: 0.01 µM; `CN(C)c1ccc(-c2nc3c(N4CCN(CC(=O)Nc5ccccc5)CC4)c(Br)cnc3[nH]2)cc1`: 0.277 µM. `O=C(CN1CCN(c2c(Br)cnc3[nH]cnc23)CC1)Nc1nccs1` displayed an IC50 of 0.081 µM. Next, `Cc1cc(CN2CCN(c3c(Br)cnc4[nH]c(-c5ccc(Cn6cccn6)cc5)nc34)CC2)no1`: 0.01 µM. Next, `Cc1cc(CN2CCN(c3c(Cl)cnc4nc(-c5ccc(Cn6cccn6)cc5)[nH]c34)CC2)no1`: 0.003 µM; `CC(c1ccncc1)N1CCN(c2c(Br)cnc3[nH]c(-c4ccc(N(C)C)cc4)nc23)CC1` (configuration not stated): 0.055 µM; `Cc1cc(CN2CCN(c3c(Cl)cnc4nc(-c5ccc(OCCO)cc5)[nH]c34)CC2)no1`: 0.029 µM. Then `Cc1cc(CN2CCN(c3c(Cl)cnc4nc(-c5ccc(N6CCN(C)CC6)cc5)[nH]c34)CC2)no1`, with 0.01 µM; and `c1ccc(-c2ccc(-c3nc4cccnc4[nH]3)cc2)nc1`, with 4.4 µM; and `CC(=O)c1cccc(-c2ccc(-c3nc4ncc(Br)c(N5CCN(Cc6cc(C)on6)CC5)c4[nH]3)cc2)c1`, with 0.014 µM.

The values above are taken from ChEMBL document CHEMBL1649365, “Molecular modeling studies on imidazo[4,5-b]pyridine derivatives as Aurora A kinase inhibitors using 3D-QSAR and docking approaches” (Eur J Med Chem, 2011).
